In patent US5726179A, “Muscarinic agonists” (The University of Toledo, priority 1996, dated 1998):
Structures can show the parent of a compound that is named as a salt.

How the values were obtained:
[1] = test system: muscarinic receptors; test: PI cortex: agonist activity at muscarinic receptors in rat central nervous system; format: biochemical; conditions: mean from one to three experiments, each in triplicate
[2] = test system: M2 receptors; conditions: background; cited from earlier work
[3] = test system: experimental animals; conditions: background, cited from earlier work; for reverse cognitive impairments in experimental animals: natural product agonist ligands
[4] = target: muscarinic receptors; test: Binding affinity at muscarinic receptors in rat central nervous system, ligand [3H]-QNB; conditions: rat CNS; mean from one to three experiments, each in triplicate
Description: Data represent the mean from one
to three experiments, each performed in triplicate.

[5] = test system: M3 receptors; conditions: background; cited from earlier work

| Compound | PI cortex (at 100 μM) [1] [%] | other results |
| --- | --- | --- |
| CC#CCOC(=O)C1CN=CNC1.Cl (stereo not drawn) [CDD-0171-A, 5-(2-Butynyloxycarbonyl)-1,4,5,6-tetrahydropyrimidine HCl] | 140 | – |
| CCN(CC)CC1CCCCN1CC(=O)N1c2ccccc2C(=O)Nc2cccnc21 (stereo not drawn) [AF-DX 116] | – | selective antagonist for M2 receptors [2]: selective antagonists |
| CC[C@@H]1C(=O)OC[C@@H]1Cc1cncn1C [pilocarpine] | – | reverse cognitive impairments in experimental animals [3]: reverse cognitive impairments |
| CN1CCN(CC(=O)N2c3ccccc3C(=O)Nc3cccnc32)CC1 [pirenzepine] | – | produce memory impairments in experimental animals ([3]; M1 antagonist): produce memory impairments |
| C#C/C(C)=C/COC(=O)C1CN=CNC1 (stereo not drawn) [CDD-0161-A, (trans)-5-(3-Methyl-2-penten-4-ynyloxycarbonyl)-1,4,5,6-tetrahydropyrimidine HCl] | 35 ± 5.6 | – |
| COC(=O)C1=CCCN(C)C1 [arecoline] | – | reverse cognitive impairments in experimental animals [3]: reverse cognitive impairments |
| C#CCCOC(=O)C1CN=CNC1 (stereo not drawn) [CDD-0195-A] | 100 ± 15 | – |
| 5-(3-Methylpropynyloxycarbonyl)-1,4,5,6-tetrahydropyrimidine HCl [CDD-0177-A] | 22 ± 3 | IC50 [4]: 45 µM |
| O[Si](CCCN1CCCCC1)(c1ccc(F)cc1)C1CCCCC1 (stereo not drawn) [p-F-hexahydrosiladifenidol] | – | selective antagonist for M3 receptors [5]: selective antagonists |
| C#C/C(C)=C\COC(=O)C1CN=CNC1 (stereo not drawn) [CDD-0162-A, (cis)-5-(3-Methyl-2-penten-4-ynyloxycarbonyl)-1,4,5,6-tetrahydropyrimidine HCl] | 50 ± 4.3 | – |
| O=C(OCC#Cc1ccccc1)C1CN=CNC1 (stereo not drawn) [CDD-0189-A] | 3 ± 8.2 | – |
